The record followed here is US20240043435A1, “TYK-2 INHIBITOR” (BEIGENE, LTD., priority 2020, published 2024).

Some results are limits rather than exact numbers.

The subject of experiment [1] is pSTAT5/GM-CSF. The experiment is described as follows: pSTAT5/GM-CSF cellular assay (JAK2 selectivity). Format: cell-based.
The test system of experiment [2] is JAK2, TYK2/p-STAT4 (Tyr693) activated by IL-12 in NK-92 cell line. The experiment is described as follows: IL-12-JAK2, TYK2/p-STAT4 (Tyr693) inhibition IC50 cellular assay. Format: cell-based. Particulars: for Selectivity fold (TYK2/JAK2): Cellular assay, pSTAT5/GM-CSF IC50 vs pSTAT4/IL-12 IC50; for IC50: NK92, Cellular assay, read-out: pSTAT4/IL-12 IC50. The method in brief:
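NK-92 cells were starved overnight without IL-2 and preincubated 1 h at 37° C with compound (8 doses, 10000–0.61 nM, 4-fold, 0.2% DMSO). They were then stimulated with IL-12 (40 ng/ml final) for 30 min. Lysate p-STAT4 (Tyr693) was read by AlphaLISA SureFire; IC50 from four-parameter logistic fit.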

For experiment [3], the target named is T1, TYK2-JH2 (aa 575-869, in-house) protein (Homo sapiens, UniProt P29597).
T1 construct: TYK2-JH2 (aa 575-869, in-house) protein; made in house
The experiment is described as follows: TYK2-JH2 biochemical assay (HTRF probe displacement). Format: binding. Particulars: Biochemical assay; read-out: TYK2-JH2 IC50. The method in brief: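 Recombinant TYK2-JH2 (0.2 nM) was pre-incubated 0.5 h at room temperature with compounds (10 doses, 5-fold dilution; 500× DMSO stocks from 500 uM) in 20 mM HEPES pH 7.5, 10 mM MgCl2, 0.005% BSA, 2 mM DTT, 0.015% Brij-35. Probe displacement was read by HTRF (ex337, em620/665 nm); IC50 from four-parameter logistic fit.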

Setting [4] is: pSTAT5/GM-CSF IC50 over pSTAT4/IL-12 IC50.

T1 sequence (P29597 575-869): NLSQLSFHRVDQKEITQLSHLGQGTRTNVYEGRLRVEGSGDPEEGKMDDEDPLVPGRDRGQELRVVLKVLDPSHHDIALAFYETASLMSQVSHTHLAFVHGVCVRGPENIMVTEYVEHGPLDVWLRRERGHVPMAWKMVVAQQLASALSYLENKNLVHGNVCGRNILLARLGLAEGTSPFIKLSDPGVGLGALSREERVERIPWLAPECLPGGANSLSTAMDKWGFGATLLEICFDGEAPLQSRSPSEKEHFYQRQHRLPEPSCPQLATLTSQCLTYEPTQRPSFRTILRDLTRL

As for `[2H]C([2H])([2H])Oc1cc(Nc2cc(NC(C)=O)ncc2-c2ccc(N3C[C@@H](C)O[C@@H](C)C3)cn2)nc(S(C)(=O)=O)c1` [Example C17, N-(5-((cis)-2,6-dimethylmorpholino)-4′-((4-(methoxy-d3)-6-(methylsulfonyl)pyridin-2-yl)amino)-[2,3′-bipyridin]-6′-yl)acetamide], the figures for the IC50 in experiment [1], in experiment [2] and in experiment [3] were more than 10000 nM, 0.605 nM and 0.022 nM, respectively. For the same molecule, the “Selectivity fold (TYK2/JAK2)” value in experiment [2] is reported as more than 16528 fold.
`COCC1CN(c2ccc(-c3cnc(NC(C)=O)cc3Nc3cc(OC(C)C)cc(S(C)(=O)=O)n3)nc2)CCO1` (stereo not shown) [Example B18, N-(4′-((4-isopropoxy-6-(methylsulfonyl)pyridin-2-yl)amino)-5-(2-(methoxymethyl)morpholino)-[2,3′-bipyridin]-6′-yl)acetamide]: the figures for the IC50 in experiment [1], in experiment [2] and in experiment [3] were more than 10000 nM, 1.05 nM and 0.036 nM, respectively. In addition, in experiment [2], the “Selectivity fold (TYK2/JAK2)” value was more than 9523 fold.
On to `CC(=O)Nc1cc(Nc2cc(OCC3CC3)cc(S(C)(=O)=O)c2)c(-c2ccc(C(C)(C)O)cn2)cn1` [Example H22, N-(4′-((3-(cyclopropylmethoxy)-5-(methylsulfonyl)phenyl)amino)-5-(2-hydroxypropan-2-yl)-[2,3′-bipyridin]-6′-yl)acetamide], for which the figures for the IC50 in experiment [1], in experiment [2] and in experiment [3] were more than 10000 nM, 2.76 nM and 0.038 nM, respectively. In addition, the “Selectivity fold (TYK2/JAK2)” value in experiment [2] is more than 3623 fold.
As to `CC(=O)Nc1cc(Nc2cc(OCCO)cc(S(C)(=O)=O)c2)c(-c2cc(C)n(C)n2)cn1` [Example N3, N-(5-(1,5-dimethyl-1H-pyrazol-3-yl)-4-((3-(2-hydroxyethoxy)-5-(methylsulfonyl)phenyl)amino)pyridin-2-yl)acetamide], the values for the IC50 in experiment [1], in experiment [2] and in experiment [3] were more than 10000 nM, 12.6 nM and 0.033 nM, respectively. In experiment [1] (setting [4]), the “Selectivity fold (TYK2/JAK2)” value was more than 791 fold.
With `COCCOc1cc(Nc2cc(NC(C)=O)ncc2-c2ccc(N3CCOCC3=O)cn2)nc(S(C)(=O)=O)c1` [Example G4, N-(4′-((4-(2-methoxyethoxy)-6-(methylsulfonyl)pyridin-2-yl)amino)-5-(3-oxomorpholino)-[2,3′-bipyridin]-6′-yl)acetamide], the IC50 in experiment [1] is more than 10000 nM; in experiment [2] it was 16 nM; in experiment [3] it was 0.048 nM. Also, the “Selectivity fold (TYK2/JAK2)” value in experiment [1] (pSTAT5/GM-CSF vs pSTAT4/IL-12) is more than 625 fold.
On to `CC(=O)Nc1cc(Nc2cc(OCCO)cc(S(C)(=O)=O)n2)c(-c2ccccn2)cn1` [Example B7, N-(4′-((4-(2-hydroxyethoxy)-6-(methylsulfonyl)pyridin-2-yl)amino)-[2,3′-bipyridin]-6′-yl)acetamide], for which the IC50 in experiment [1] was more than 10000 nM; in experiment [2], 5.58 nM; in experiment [3], 0.016 nM. Besides, the “Selectivity fold (TYK2/JAK2)” value in experiment [2] was more than 1792 fold.
With `CC(=O)Nc1cc(Nc2cc(OC(C)C)cc(S(C)(=O)=O)n2)c(-c2cccc(C#N)n2)cn1` [Example A16, N-(6-cyano-4′-((4-isopropoxy-6-(methylsulfonyl)pyridin-2-yl)amino)-[2,3′-bipyridin]-6′-yl)acetamide], the figures for the IC50 in experiment [1], in experiment [2] and in experiment [3] were more than 10000 nM, 0.667 nM and 0.021 nM, respectively. For the same molecule, the “Selectivity fold (TYK2/JAK2)” value in experiment [2] is more than 14992 fold.
Regarding `COCCOc1cc(Nc2cc(NC(C)=O)ncc2-c2ccc(C(C)(C)O)cn2)nc(S(C)(=O)=O)c1` [Example H6, N-(5-(2-hydroxypropan-2-yl)-4′-((4-(2-methoxyethoxy)-6-(methylsulfonyl)pyridin-2-yl)amino)-[2,3′-bipyridin]-6′-yl)acetamide], the IC50 stood at 8870 nM in experiment [1], 1.25 nM in experiment [2] and 0.014 nM in experiment [3]. In experiment [2], the “Selectivity fold (TYK2/JAK2)” value came out at 7097 fold.
On to `COCCn1ccc(-c2cnc(NC(C)=O)cc2Nc2cc(C)cc(S(C)(=O)=O)n2)n1` [Example A15, N-(5-(1-(2-methoxyethyl)-1H-pyrazol-3-yl)-4-((4-methyl-6-(methylsulfonyl)pyridin-2-yl)amino)pyridin-2-yl)acetamide], for which the results for the IC50 in experiment [1], in experiment [2] and in experiment [3] were 3460 nM, 0.687 nM and 0.04 nM, respectively. Further, the “Selectivity fold (TYK2/JAK2)” value in experiment [2] was found to be 5039 fold.
With `COCCOc1ccc(-c2cnc(NC(C)=O)cc2Nc2cc(OC(C)C)cc(S(C)(=O)=O)n2)nc1` [Example D6, N-(4′-((4-isopropoxy-6-(methylsulfonyl)pyridin-2-yl)amino)-5-(2-methoxyethoxy)-[2,3′-bipyridin]-6′-yl)acetamide], the IC50 in experiment [1] was more than 10000 nM; in experiment [2], 0.593 nM; in experiment [3], 0.025 nM. Also, in experiment [2], the “Selectivity fold (TYK2/JAK2)” value is more than 16863 fold.
With `CC(=O)Nc1cc(Nc2cc(OCCO)cc(S(C)(=O)=O)n2)c(-c2ccn(C(C)C)n2)cn1` [Example M28, N-(4-((4-(2-hydroxyethoxy)-6-(methylsulfonyl)pyridin-2-yl)amino)-5-(1-isopropyl-1H-pyrazol-3-yl)pyridin-2-yl)acetamide], the IC50 is more than 10000 nM in experiment [1], 16.6 nM in experiment [2] and 0.032 nM in experiment [3]. In addition, in experiment [1] (setting [4]), the “Selectivity fold (TYK2/JAK2)” value is recorded as more than 601 fold.
Consider `CC(=O)Nc1cc(Nc2cccc(S(C)(=O)=O)n2)c(-c2ccc(N3C[C@@H](C)O[C@@H](C)C3)cn2)cn1` [Example C2, N-(5-((cis)-2,6-dimethylmorpholino)-4′-((6-(methylsulfonyl)pyridin-2-yl)amino)-[2,3′-bipyridin]-6′-yl)acetamide], for which the IC50 amounted to 962 nM in experiment [1], 0.312 nM in experiment [2] and 0.026 nM in experiment [3]. In addition, the “Selectivity fold (TYK2/JAK2)” value in experiment [2] was determined as 3083 fold.
For the molecule `CC(=O)Nc1cc(Nc2cc(Cl)cc(S(C)(=O)=O)c2)c(-c2ccn(C)n2)cn1` [Example J31, N-(4-((3-chloro-5-(methylsulfonyl)phenyl)amino)-5-(1-methyl-1H-pyrazol-3-yl)pyridin-2-yl)acetamide], the results for the IC50 in experiment [1], in experiment [2] and in experiment [3] were more than 10000 nM, 15 nM and 0.076 nM, respectively. Further, the “Selectivity fold (TYK2/JAK2)” value in experiment [1] (setting [4]) is listed as more than 668 fold.
On to `COc1cc(Nc2cc(NC(C)=O)ncc2-c2ccc(N3C[C@@H](C)O[C@@H](C)C3)cn2)nc(S(C)(=O)=O)c1` [Example C9, N-(5-(cis-2,6-dimethylmorpholino)-4′-((4-methoxy-6-(methylsulfonyl)pyridin-2-yl)amino)-[2,3′-bipyridin]-6′-yl)acetamide], for which the figures for the IC50 in experiment [1], in experiment [2] and in experiment [3] were more than 10000 nM, 0.672 nM and 0.027 nM, respectively. Further, the “Selectivity fold (TYK2/JAK2)” value in experiment [2] is on record as more than 14880 fold.
Taken in the same sequence, the figures for `COc1ccc(-c2cnc(NC(C)=O)cc2Nc2nc(S(C)(=O)=O)cc3c2OCO3)nn1` [Example A28, N-(5-(6-methoxypyridazin-3-yl)-4-((6-(methylsulfonyl)-[1,3]dioxolo[4,5-c]pyridin-4-yl)amino)pyridin-2-yl)acetamide] were more than 10000 nM, 1.52 nM, 0.033 nM and more than 6578 fold.
On to `CC(=O)Nc1cc(Nc2cc(C(F)(F)F)cc(S(C)(=O)=O)c2)c(-c2ccn(C(C)C)n2)cn1` [Example M25, N-(5-(1-isopropyl-1H-pyrazol-3-yl)-4-((3-(methylsulfonyl)-5-(trifluoromethyl)phenyl)amino)pyridin-2-yl)acetamide], for which the IC50 in experiment [1] is more than 10000 nM; in experiment [2] it was 15.2 nM; in experiment [3], 0.096 nM. The “Selectivity fold (TYK2/JAK2)” value in experiment [1] (setting [4]) is more than 659 fold.
On to `CC(=O)Nc1cc(Nc2cc(OC[C@@H](C)O)cc(S(C)(=O)=O)n2)c(-c2ccn(C)n2)cn1` [Example J47, (R)-N-(4-((4-(2-hydroxypropoxy)-6-(methylsulfonyl)pyridin-2-yl)amino)-5-(1-methyl-1H-pyrazol-3-yl)pyridin-2-yl)acetamide], for which the IC50 in experiment [1] was more than 10000 nM; in experiment [2] it was 4.73 nM; in experiment [3], 0.037 nM. In addition, the “Selectivity fold (TYK2/JAK2)” value in experiment [1] (setting [4]) is given as more than 2114 fold.
On to `COc1ccc(-c2cnc(NC(C)=O)cc2Nc2cc(OCC3CC3)cc(S(C)(=O)=O)n2)nn1` [Example A25, N-(4-((4-(cyclopropylmethoxy)-6-(methylsulfonyl)pyridin-2-yl)amino)-5-(6-methoxypyridazin-3-yl)pyridin-2-yl)acetamide], for which the figures for the IC50 in experiment [1], in experiment [2] and in experiment [3] were more than 10000 nM, 0.596 nM and 0.027 nM, respectively. Also, in experiment [2], the “Selectivity fold (TYK2/JAK2)” value is given as more than 16778 fold.
Turning to `CC(=O)Nc1cc(Nc2cc(C#N)cc(S(C)(=O)=O)n2)c(-c2ccc3c(n2)OCC(C)(C)O3)cn1` [Example Q63, N-(4-((4-cyano-6-(methylsulfonyl)pyridin-2-yl)amino)-5-(2,2-dimethyl-2,3-dihydro-[1,4]dioxino[2,3-b]pyridin-6-yl)pyridin-2-yl)acetamide], the IC50 in experiment [1] came out at 459 nM; in experiment [2], 0.755 nM; in experiment [3], 0.051 nM. In addition, the “Selectivity fold (TYK2/JAK2)” value in experiment [1] (setting [4]) was 608 fold.
